Measurements from article PMC10108353, “Design and Pharmacological Characterization of α4β1 Integrin Cyclopeptide Agonists: Computational Investigation of Ligand Determinants for Agonism versus Antagonism” (Journal of Medicinal Chemistry, 2023).

Key:
αMβ2 integrin = αMβ2 integrin (Homo sapiens, UniProt P05107+P11215); experiment: Competitive solid-phase binding assay, purified αMβ2 / fibrinogen; parameters: purchased R&D Systems; conditions: read-out: Binding affinity IC50, αMβ2/Fg
Experimental: (§1) For the evaluation of binding affinity to purified α4β1, αMβ2, and α4β7 integrins, competitive solid-phase ligand binding assays were performed as follows. […] Afterward, each well was washed and blocked for 1 h at RT. Purified integrins (α4β1: 0.5 μg/mL; α4β7: 0.5 μg/mL; αMβ2: 0.5 μg/mL; R&D Systems) were preincubated with serial dilutions of new compounds (10^–4 – 10^–10 M) for 30 min at RT and then plated into coated wells for 1 h at RT. After two washes, primary antibody (for α4β1 and α4β7: rabbit anti-α4, Abcam, 1:100 dilution; for αMβ2: rabbit anti-αM, Abcam, 1:100 dilution) was added and incubated for 1 h at RT. The plate was washed twice and then was incubated with anti-rabbit AlexaFluor488 secondary antibody (1:400 dilution, ThermoFischer Scientific) for 1 h at RT. After washing three times, fluorescence was measured as described in the previous section.

α4β7 integrin = target: T1, α4β7 integrin (Homo sapiens, UniProt P13612+P26010); conditions: purified integrin; read-out: Binding affinity IC50, α4β7/MAdCAM-1
T1 construct: purchased R&D Systems
T1 sequence (P13612 34-970 limits assumed): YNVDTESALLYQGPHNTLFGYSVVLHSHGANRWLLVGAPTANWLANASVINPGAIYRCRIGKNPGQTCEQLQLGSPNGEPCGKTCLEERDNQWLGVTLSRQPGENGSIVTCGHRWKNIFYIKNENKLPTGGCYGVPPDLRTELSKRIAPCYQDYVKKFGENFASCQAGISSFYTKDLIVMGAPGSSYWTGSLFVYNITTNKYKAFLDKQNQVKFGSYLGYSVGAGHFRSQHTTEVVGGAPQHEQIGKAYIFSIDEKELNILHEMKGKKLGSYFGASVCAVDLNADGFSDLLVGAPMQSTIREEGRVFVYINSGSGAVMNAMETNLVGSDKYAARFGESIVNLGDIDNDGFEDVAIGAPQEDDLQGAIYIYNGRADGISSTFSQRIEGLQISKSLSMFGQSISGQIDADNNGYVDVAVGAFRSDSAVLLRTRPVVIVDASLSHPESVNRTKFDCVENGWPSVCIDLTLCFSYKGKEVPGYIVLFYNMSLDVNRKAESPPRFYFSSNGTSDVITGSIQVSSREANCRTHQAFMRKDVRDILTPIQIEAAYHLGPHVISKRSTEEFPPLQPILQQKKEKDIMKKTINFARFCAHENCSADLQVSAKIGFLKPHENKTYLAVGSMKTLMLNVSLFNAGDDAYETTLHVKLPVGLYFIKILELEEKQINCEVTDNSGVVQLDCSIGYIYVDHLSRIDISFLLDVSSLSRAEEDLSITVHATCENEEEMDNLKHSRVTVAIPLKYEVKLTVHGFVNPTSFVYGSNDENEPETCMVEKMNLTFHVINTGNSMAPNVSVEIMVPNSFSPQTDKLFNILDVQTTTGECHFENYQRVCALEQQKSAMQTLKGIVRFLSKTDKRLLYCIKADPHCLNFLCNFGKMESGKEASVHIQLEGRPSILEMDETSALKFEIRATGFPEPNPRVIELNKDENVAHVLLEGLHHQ
T1 sequence (P26010 20-723 limits assumed): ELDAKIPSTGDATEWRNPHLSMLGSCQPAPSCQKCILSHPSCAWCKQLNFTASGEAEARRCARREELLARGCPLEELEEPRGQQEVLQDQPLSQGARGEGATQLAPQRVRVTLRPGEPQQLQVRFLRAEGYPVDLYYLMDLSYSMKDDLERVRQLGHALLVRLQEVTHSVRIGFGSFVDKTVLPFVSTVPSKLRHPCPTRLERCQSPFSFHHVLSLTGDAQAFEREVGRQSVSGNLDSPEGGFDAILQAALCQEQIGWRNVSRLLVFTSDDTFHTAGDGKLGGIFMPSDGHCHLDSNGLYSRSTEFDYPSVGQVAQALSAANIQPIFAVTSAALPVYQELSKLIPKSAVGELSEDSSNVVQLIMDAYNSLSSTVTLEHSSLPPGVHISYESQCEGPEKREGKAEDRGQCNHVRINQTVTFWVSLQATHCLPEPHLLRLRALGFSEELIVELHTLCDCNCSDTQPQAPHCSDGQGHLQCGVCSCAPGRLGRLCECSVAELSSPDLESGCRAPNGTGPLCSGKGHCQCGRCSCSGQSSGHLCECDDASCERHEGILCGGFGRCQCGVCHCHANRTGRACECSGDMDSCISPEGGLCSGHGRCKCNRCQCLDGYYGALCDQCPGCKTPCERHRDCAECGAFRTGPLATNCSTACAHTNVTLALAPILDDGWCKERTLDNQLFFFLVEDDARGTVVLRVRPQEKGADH
Experimental: as §1

α4β1 integrin [1] = target: T2, α4β1 integrin (Homo sapiens, UniProt P05556+P13612); experiment: Jurkat E6.1 cell adhesion to VCAM-1
Target sequence in this assay (P13612 34-1032): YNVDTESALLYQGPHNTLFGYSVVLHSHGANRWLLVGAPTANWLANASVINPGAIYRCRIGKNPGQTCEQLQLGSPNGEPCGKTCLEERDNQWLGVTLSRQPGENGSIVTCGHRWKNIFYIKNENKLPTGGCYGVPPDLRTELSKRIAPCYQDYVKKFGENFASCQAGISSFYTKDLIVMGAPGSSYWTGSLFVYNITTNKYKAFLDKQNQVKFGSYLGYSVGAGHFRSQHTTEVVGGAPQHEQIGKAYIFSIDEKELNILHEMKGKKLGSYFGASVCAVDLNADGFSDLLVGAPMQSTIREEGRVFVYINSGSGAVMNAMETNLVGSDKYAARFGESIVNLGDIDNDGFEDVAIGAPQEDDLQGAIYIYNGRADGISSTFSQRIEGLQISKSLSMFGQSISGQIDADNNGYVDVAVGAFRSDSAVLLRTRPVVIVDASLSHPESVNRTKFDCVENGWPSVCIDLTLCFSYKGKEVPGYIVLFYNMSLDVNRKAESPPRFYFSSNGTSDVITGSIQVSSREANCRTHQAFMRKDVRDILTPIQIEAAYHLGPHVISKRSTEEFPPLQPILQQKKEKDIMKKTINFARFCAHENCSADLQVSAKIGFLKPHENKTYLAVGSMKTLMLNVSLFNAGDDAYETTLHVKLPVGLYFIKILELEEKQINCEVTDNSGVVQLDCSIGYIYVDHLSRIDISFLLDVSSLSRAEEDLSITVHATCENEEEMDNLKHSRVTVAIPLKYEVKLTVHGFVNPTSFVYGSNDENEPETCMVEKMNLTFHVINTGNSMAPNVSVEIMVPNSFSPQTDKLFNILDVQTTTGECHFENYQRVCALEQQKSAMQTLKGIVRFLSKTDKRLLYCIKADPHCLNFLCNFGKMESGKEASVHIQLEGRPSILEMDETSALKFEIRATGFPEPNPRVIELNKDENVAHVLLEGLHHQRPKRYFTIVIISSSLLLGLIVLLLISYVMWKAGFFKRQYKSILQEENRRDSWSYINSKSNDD
Target sequence in this assay (P05556 21-798): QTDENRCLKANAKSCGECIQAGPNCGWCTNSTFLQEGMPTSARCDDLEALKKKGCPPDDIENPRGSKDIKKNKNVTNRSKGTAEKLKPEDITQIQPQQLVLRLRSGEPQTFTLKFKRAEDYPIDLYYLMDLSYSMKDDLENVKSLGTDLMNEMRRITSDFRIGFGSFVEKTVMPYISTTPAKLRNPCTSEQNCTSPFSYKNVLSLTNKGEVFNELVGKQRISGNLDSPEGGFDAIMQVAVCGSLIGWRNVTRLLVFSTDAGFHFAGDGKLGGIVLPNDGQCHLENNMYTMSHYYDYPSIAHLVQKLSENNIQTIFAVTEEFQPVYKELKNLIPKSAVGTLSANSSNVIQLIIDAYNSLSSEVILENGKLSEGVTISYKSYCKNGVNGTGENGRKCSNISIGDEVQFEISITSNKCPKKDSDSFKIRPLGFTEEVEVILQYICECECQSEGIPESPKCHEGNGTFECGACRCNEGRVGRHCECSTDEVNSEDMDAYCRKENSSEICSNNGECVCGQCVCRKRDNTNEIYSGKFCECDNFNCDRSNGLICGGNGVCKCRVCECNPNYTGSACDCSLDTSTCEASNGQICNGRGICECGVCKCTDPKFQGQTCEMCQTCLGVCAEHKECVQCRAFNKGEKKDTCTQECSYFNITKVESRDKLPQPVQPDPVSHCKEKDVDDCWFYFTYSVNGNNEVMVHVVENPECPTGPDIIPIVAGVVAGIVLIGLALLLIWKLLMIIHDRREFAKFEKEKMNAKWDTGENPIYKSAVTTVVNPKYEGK
Experimental: (§2) Cells were seeded in 96-well plates coated with the specific natural human recombinant ligands (Table 1) and allowed to adhere in the presence of increasing concentrations (10^–10 to 10^–4 M) of the synthesized CPPs before the determination of the number of adherent cells (as described in Experimental Section).
For adhesion assays on Jurkat E6.1, RPMI8866, or HL60 cells, black 96-well plates were coated overnight at 4 °C with VCAM-1 or ICAM-1 or MAdCAM-1 (5 μg/mL) or Fg (10 μg/mL). The cells were counted, stained with CellTracker green CMFDA (12.5 μM, 30 min at 37 °C, Life Technologies), and after three washes, were preincubated with increasing concentrations of new CPP (10^–10 to 10^–4 M) or with the vehicle (methanol) for 30 min at 37 °C. Then cells were plated (500 000/well) on coated wells and incubated for 30 min at 37 °C. After three washes, adhered cells were lysed with 0.5% Triton X-100 in PBS (30 min at 4 °C) and fluorescence was measured (Ex485 nm/Em535 nm) in an EnSpire Multimode Plate Reader (PerkinElmer, Waltham, MA). For adhesion assays mediated by α5β1 integrin, 96-well plates were coated by passive adsorption with FN (10 μg/mL) overnight at 4 °C. K562 cells were counted and preincubated with various concentrations of the peptides or with the vehicle (methanol) for 30 min at RT. Afterward, the cells were plated (50 000 cells/well) and incubated at RT for 1 h. The wells were then washed with 1% BSA in PBS (phosphate-buffered saline) to take off nonadherent cells, and 50 μL of hexosaminidase substrate was added; after addition of 100 μL of stopping solution, the plates were read at 405 nm. In both types of adhesion assay, the number of adherent cells was determined by comparison with a standard curve made in the same plate. Experiments were carried out in quadruplicate and repeated at least three times.
Jurkat E6.1 (expressing α4β1 and αLβ2 integrin), K562 (expressing α5β1 integrin) and HL60 (expressing αMβ2 integrin) cell lines were purchased from ATCC (Rockville, MD, USA); these cells were routinely cultured in RPMI-1640 (Life Technologies) supplemented with glutamine and 10% FBS.
Cells were grown at 37 °C under 5% CO2 humidified atmosphere.

α4β1 integrin [2] = target: T2, α4β1 integrin; experiment: Competitive solid-phase binding assay, purified α4β1 / VCAM-1; parameters: purchased R&D Systems; conditions: read-out: Binding affinity IC50, α4β1/VCAM-1
Experimental: as §1
Target sequence in this assay (P05556 21-728 limits assumed, one chain of several): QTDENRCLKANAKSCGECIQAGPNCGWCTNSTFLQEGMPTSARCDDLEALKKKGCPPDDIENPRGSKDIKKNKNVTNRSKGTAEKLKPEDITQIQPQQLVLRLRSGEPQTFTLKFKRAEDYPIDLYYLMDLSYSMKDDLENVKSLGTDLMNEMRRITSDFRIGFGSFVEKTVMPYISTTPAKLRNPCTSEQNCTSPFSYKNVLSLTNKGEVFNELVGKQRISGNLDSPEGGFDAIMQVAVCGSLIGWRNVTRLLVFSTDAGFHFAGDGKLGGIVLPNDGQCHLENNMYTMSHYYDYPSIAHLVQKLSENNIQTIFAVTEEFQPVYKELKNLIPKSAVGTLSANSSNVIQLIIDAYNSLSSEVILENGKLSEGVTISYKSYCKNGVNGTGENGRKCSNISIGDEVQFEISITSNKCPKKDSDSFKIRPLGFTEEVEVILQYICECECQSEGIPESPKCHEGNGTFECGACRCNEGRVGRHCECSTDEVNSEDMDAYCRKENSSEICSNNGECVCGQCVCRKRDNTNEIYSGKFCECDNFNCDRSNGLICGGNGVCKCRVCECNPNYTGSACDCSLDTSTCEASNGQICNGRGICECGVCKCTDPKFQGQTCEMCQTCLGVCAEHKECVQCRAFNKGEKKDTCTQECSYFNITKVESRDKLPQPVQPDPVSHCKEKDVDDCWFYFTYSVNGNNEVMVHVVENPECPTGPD

α5β1 integrin = α5β1 integrin (Homo sapiens, UniProt P05556+P08648); experiment: K562 cell adhesion to FN
Chain of α5β1 integrin (P08648 42-894 limits assumed): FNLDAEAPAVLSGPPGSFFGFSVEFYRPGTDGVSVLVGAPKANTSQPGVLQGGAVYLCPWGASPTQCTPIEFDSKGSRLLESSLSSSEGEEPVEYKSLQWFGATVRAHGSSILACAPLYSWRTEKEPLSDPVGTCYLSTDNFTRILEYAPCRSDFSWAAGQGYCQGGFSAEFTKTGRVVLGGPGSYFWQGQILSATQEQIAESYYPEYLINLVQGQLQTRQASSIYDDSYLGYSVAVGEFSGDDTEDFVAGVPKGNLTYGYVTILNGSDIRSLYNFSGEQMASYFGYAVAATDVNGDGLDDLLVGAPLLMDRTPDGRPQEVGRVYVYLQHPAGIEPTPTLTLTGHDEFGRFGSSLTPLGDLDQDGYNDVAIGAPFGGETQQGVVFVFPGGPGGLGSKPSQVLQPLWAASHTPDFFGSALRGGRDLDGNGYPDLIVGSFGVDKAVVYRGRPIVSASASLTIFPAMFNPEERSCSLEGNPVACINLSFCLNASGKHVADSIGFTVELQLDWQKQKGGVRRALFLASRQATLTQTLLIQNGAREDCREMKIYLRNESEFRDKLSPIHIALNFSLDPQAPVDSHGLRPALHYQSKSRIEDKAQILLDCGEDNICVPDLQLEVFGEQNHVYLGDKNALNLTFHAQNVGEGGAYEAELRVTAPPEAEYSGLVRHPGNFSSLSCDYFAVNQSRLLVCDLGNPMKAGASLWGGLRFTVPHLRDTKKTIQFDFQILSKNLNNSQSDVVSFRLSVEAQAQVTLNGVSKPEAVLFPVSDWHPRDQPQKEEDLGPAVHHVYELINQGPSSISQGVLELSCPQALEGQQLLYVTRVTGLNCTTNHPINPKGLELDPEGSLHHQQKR
Chain of α5β1 integrin (P08648 895-1049 partner limits assumed): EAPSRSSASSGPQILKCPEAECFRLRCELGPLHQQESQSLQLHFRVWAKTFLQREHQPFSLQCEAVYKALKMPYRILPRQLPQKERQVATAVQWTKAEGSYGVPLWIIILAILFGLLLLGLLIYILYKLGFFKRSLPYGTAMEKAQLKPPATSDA
Chain of α5β1 integrin (P05556 21-798): as the sequence (P05556 21-798) above
Experimental: as §2
For adhesion assays on Jurkat E6.1, RPMI8866, or HL60 cells, black 96-well plates were coated overnight at 4 °C with VCAM-1 or ICAM-1 or MAdCAM-1 (5 μg/mL) or Fg (10 μg/mL). The cells were counted, stained with CellTracker green CMFDA (12.5 μM, 30 min at 37 °C, Life Technologies), and after three washes, were preincubated with increasing concentrations of new CPP (10^–10 to 10^–4 M) or with the vehicle (methanol) for 30 min at 37 °C. […] After three washes, adhered cells were lysed with 0.5% Triton X-100 in PBS (30 min at 4 °C) and fluorescence was measured (Ex485 nm/Em535 nm) in an EnSpire Multimode Plate Reader (PerkinElmer, Waltham, MA). […] K562 cells were counted and preincubated with various concentrations of the peptides or with the vehicle (methanol) for 30 min at RT. […] The wells were then washed with 1% BSA in PBS (phosphate-buffered saline) to take off nonadherent cells, and 50 μL of hexosaminidase substrate was added; after addition of 100 μL of stopping solution, the plates were read at 405 nm. […]

[3] = agonist = adhesion index >1, antagonist = adhesion index <1

Chain of αMβ2 integrin (P05107 23-700 limits assumed, other chains not shown): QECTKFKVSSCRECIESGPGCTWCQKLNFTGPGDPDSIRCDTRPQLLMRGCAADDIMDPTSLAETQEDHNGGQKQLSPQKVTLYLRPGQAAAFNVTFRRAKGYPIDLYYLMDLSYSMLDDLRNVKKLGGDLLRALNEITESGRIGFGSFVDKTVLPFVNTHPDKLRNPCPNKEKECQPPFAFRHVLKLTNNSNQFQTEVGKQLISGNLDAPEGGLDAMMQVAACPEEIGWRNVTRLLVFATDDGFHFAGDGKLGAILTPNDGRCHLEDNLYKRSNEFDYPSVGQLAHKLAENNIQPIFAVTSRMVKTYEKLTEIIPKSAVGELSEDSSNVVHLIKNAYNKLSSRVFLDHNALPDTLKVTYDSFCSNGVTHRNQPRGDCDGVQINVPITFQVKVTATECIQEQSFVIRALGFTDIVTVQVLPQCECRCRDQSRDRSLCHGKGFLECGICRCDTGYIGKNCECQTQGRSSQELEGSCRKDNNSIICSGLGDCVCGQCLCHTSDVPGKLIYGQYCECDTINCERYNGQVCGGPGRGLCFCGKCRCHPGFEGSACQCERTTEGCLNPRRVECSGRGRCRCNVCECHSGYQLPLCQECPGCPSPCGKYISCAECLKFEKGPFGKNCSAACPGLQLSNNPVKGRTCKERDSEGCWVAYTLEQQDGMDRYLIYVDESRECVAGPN

Row | Structure (SMILES) | IC50 (αMβ2 integrin) [nM] | IC50 (α4β7 integrin) [nM] | agonist or antagonist behaviour, VCAM-1/Jurkat E6.1 α4β1 (α4β1 integrin [1]; [3]) | EC50 (α4β1 integrin [1]; read-out: EC50 for agonists, VCAM-1/Jurkat E6.1 α4β1, increase of cell adhesion, mean ± SD) [nM] | IC50 (α4β1 integrin [2]) [nM] | agonist or antagonist behaviour, FN/K562 α5β1 (α5β1 integrin; [3]) | EC50 (α5β1 integrin; read-out: EC50 for agonists, FN/K562 α5β1, increase of cell adhesion, mean ± SD) [nM]
1 | Cc1ccccc1NC(=O)N1C(=O)CC1CC(=O)O (stereo not shown) [1a] | > 5000 | > 5000 | agonist | 13 ± 0.8 | 10.1 ± 4.9 | – | –
2 | Cc1ccccc1NC(=O)N1C(=O)CC1CC(=O)NCC(=O)O (stereo not shown) [1b] | > 5000 | > 5000 | – | – | > 5000 | agonist | 9.7 ± 0.5
